Activity calls are given as the source filed them. No cut-off for these calls is given here.
Experiments:
[1] = Reduction of blood glucose level in alloxan induced diabetic mice at 200 mg/kg; assay type: functional, organism-based; design: dose 200 mg/kg; details: Mus musculus, target entry is the homologue from another species
Escherichia coli [2] = assay: Antibacterial activity against Escherichia coli; assay type: functional
[3] = biological target: Sulfonylurea receptor 1, Kir6.2 (Homo sapiens) (UniProt Q14654+Q09428); assay: Binding affinity to sulfonylurea receptor in pancreatic islet beta cell membranes
Escherichia coli [4] = assay: Antibacterial activity against Escherichia coli upto 50 ug/mL; assay type: functional, organism-based

Compound | Activity [1] [mg/dL] | MIC (Escherichia coli [2]) [µg/mL] | Activity [3] | Activity (Escherichia coli [4])
COc1ccc2cc3[n+](cc2c1OC)CCc1cc2c(cc1-3)OCO2.[Cl-] [BERBERINE CHLORIDE] | 61 | 5 | Active | 
COc1ccc2cc3[n+](cc2c1OC)CCc1cc(O)c(O)cc1-3 |  |  | inactive | inactive
COc1ccc2cc3[n+](cc2c1O)CCc1cc2c(cc1-3)OCO2 | 12 |  | Active | inactive
COc1ccc2c[n+]3c(cc2c1)-c1cc2c(cc1CC3)OCO2 |  |  | inactive | inactive
COc1ccc2c(c1OC)C[N+]1(C)CCc3cc4c(cc3C1C2)OCO4 (stereo unspecified) |  |  | inactive | inactive
COc1ccc2c(c1OC)C[N+]1(Cc3ccccc3)CCc3cc4c(cc3C1C2)OCO4 (stereo unspecified) | 146 |  | Active | inactive
COc1cccc2cc3[n+](cc12)CCc1cc2c(cc1-3)OCO2 |  |  | inactive | inactive
c1ccc2c(c1)CC1c3cc4c(cc3CCN1C2)OCO4 (stereo unspecified) |  |  | inactive | inactive
COc1ccc2cc3[n+](cc2c1)CCc1cc2c(cc1-3)OCO2 |  |  | inactive | inactive
c1ccc2c[n+]3c(cc2c1)-c1cc2c(cc1CC3)OCO2 | 67 |  | Active | inactive
COc1ccc2cc3[n+](cc2c1OC)CCc1cc(OC(C)=O)c(OC(C)=O)cc1-3 |  |  | inactive | inactive
c1ccc(COc2ccc3c[n+]4c(cc3c2)-c2cc3c(cc2CC4)OCO3)cc1 |  |  | inactive | inactive
CC[N+]12CCc3cc4c(cc3C1Cc1ccc(OC)c(OC)c1C2)OCO4 (stereo unspecified) |  |  | inactive | inactive
COc1ccc2c(c1OC)CN1CCc3cc4c(cc3[C@@H]1C2)OCO4 |  |  | inactive | inactive
COc1ccc2c(c1)C(=O)N(CCc1ccc(S(=O)(=O)NC(=O)NC3CCCCC3)cc1)C(=O)C2(C)C | 162 |  | Active | 
COc1cc2c(cc1OC)-c1cc3ccc(OC)c(OC)c3c[n+]1CC2 |  |  | inactive | inactive
COc1ccc2c(c1OC)C[N+]1([O-])CCc3cc4c(cc3C1C2)OCO4 (stereo unspecified) | 23 |  | Active | inactive
c1ccc(C[N+]23CCc4cc5c(cc4C2Cc2ccccc2C3)OCO5)cc1 (stereo unspecified) |  |  | Active | inactive

Reference: ChEMBL document CHEMBL1139034, “Synthesis and antihyperglycemic evaluation of various protoberberine derivatives” (2006)
